Test results taken from paper PMC12372887, “Mechanism and cellular actions of the potent AMPK inhibitor BAY-3827” (Science Advances, 2025).

Assays:
Assay in all cases: Kinase panel (140 human kinases)
Type in all cases: biochemical
S6K1 = S6K1 (Homo sapiens, UniProt P23443)
Description: (§1) BAY-3827 and BAY-974 were assayed against a 140-human kinase panel at 0.1 μM and at 1 μM (BAY-3827) concentration in a [γ-^33P] ATP–based radioactive filter binding assay ([31], [65]) setup in duplicates with reported mean remaining kinase percentage activity alongside SD (table S1). Assays were performed at either 5, 20, or 50 μM ATP to be at or below the Michaelis constant for ATP for each enzyme and conducted by the services offered by the International Centre for Kinase Profiling at MRC Protein Phosphorylation and Ubiquitylation Unit, University of Dundee (https://www.kinase-screen.mrc.ac.uk/services/premier-screen).

JNK3 = JNK3 (Homo sapiens, UniProt P53779)
Description: as §1

PIM3 = PIM3 (Homo sapiens, UniProt Q86V86)
Description: as §1

CDK9-Cyclin T1 = CDK9-Cyclin T1 (Homo sapiens, UniProt P50750)
CDK9-Cyclin T1, sequence (P50750 whole entry): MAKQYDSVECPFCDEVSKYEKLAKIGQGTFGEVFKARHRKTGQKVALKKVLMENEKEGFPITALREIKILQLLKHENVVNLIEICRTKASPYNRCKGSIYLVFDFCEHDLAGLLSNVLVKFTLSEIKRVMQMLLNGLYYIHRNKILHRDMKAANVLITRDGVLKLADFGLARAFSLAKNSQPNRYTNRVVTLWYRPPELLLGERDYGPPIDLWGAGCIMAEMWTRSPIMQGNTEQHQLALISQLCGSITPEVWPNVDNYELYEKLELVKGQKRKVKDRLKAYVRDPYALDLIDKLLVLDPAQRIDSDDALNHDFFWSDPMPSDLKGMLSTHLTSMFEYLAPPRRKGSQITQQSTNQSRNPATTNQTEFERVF
CDK9-Cyclin T1, sequence (O60563 whole entry partner): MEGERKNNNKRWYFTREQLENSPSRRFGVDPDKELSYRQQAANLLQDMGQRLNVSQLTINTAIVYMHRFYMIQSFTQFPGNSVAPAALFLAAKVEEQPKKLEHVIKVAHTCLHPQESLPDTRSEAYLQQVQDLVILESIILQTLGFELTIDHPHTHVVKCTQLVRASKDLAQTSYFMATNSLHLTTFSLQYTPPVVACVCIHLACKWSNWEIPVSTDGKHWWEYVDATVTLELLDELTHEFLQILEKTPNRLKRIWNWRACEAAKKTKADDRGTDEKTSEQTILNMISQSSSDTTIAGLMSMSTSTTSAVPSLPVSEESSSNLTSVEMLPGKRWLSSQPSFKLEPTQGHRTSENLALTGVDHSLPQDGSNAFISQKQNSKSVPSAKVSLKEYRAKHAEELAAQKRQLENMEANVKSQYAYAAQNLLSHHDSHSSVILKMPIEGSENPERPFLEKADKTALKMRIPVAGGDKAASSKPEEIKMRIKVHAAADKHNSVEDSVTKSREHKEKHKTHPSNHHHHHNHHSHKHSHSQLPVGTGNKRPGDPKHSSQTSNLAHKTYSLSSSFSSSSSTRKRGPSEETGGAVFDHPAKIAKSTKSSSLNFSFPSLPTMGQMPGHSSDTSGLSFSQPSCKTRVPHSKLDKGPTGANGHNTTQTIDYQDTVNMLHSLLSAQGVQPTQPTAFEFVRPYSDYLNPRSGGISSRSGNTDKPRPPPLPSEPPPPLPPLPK
Description: as §1

PKCz = PKCz (Homo sapiens, UniProt Q05513)
Description: as §1

Aurora B = Aurora B (Homo sapiens, UniProt Q96GD4)
Aurora B, sequence (Q96GD4 whole entry): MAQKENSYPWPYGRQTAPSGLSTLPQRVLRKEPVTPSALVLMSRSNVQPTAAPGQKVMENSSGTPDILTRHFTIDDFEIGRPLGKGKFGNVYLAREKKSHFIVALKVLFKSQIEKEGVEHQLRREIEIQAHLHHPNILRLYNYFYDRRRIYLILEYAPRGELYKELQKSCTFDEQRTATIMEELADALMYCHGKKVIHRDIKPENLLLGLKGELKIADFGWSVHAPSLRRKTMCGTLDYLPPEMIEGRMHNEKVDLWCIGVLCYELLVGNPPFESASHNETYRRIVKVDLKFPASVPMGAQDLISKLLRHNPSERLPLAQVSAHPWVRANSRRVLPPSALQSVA
Description: as §1

SRPK1 = SRPK1 (Homo sapiens, UniProt Q96SB4)
Description: as §1

PDK1 = PDK1 (Homo sapiens, UniProt O15530)
Description: as §1

EF2K = EF2K (Homo sapiens, UniProt O00418)
Description: as §1

PIM1 = PIM1 (Homo sapiens, UniProt P11309)
Description: as §1

MELK = MELK (Homo sapiens, UniProt Q14680)
MELK, sequence (Q14680 whole entry): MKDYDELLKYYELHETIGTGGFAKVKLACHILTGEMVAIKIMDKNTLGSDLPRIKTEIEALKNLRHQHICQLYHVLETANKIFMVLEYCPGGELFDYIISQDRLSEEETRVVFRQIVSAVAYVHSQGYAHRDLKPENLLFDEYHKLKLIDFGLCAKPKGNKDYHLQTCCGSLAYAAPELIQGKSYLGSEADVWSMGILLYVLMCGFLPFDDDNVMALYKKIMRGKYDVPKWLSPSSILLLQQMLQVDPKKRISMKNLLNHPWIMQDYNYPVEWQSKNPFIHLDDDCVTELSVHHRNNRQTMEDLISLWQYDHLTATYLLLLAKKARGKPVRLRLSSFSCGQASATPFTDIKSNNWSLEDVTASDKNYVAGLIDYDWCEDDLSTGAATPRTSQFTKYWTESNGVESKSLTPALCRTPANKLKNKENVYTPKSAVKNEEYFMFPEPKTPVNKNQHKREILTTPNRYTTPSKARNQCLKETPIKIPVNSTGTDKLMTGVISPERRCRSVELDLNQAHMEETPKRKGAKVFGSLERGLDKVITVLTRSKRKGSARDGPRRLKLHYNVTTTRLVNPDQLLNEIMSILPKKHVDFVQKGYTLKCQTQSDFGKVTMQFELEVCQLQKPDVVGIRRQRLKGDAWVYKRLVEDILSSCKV
Description: as §1

TGFBR1 = TGFBR1 (Homo sapiens, UniProt P36897)
Description: as §1

SGK1 = SGK1 (Homo sapiens, UniProt O00141)
Description: as §1

MAP4K3 = MAP4K3 (Homo sapiens, UniProt Q8IVH8)
Description: as §1

OSR1 = OSR1 (Homo sapiens, UniProt O95747)
Description: as §1

MPSK1 = MPSK1 (Homo sapiens, UniProt O75716)
Description: as §1

TAK1 = biological target: T1, TAK1 (Homo sapiens, UniProt O43318)
T1 sequence (O43318 1-303 limits assumed): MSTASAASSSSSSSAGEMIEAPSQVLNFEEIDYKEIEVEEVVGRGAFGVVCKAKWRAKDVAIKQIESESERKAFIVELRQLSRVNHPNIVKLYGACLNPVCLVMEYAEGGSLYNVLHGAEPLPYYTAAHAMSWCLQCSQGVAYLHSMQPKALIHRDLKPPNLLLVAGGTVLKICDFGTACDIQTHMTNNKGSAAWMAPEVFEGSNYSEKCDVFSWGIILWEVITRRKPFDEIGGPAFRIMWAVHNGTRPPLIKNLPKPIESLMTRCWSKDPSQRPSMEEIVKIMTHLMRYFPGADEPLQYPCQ
Description: as §1

ERK8 = ERK8 (Homo sapiens, UniProt Q8TD08)
Description: as §1

TTK = TTK (Homo sapiens, UniProt P33981)
Description: as §1

MAPKAP-K2 = MAPKAP-K2 (Homo sapiens, UniProt P49137)
Description: as §1

CK1δ = CK1δ (Homo sapiens, UniProt P48730)
Description: as §1

RIPK2 = RIPK2 (Homo sapiens, UniProt O43353)
Description: as §1

CAMKKb = CAMKKb (Homo sapiens, UniProt Q96RR4)
Description: as §1

RSK1 = RSK1 (Homo sapiens, UniProt Q15418)
RSK1, sequence (Q15418 whole entry): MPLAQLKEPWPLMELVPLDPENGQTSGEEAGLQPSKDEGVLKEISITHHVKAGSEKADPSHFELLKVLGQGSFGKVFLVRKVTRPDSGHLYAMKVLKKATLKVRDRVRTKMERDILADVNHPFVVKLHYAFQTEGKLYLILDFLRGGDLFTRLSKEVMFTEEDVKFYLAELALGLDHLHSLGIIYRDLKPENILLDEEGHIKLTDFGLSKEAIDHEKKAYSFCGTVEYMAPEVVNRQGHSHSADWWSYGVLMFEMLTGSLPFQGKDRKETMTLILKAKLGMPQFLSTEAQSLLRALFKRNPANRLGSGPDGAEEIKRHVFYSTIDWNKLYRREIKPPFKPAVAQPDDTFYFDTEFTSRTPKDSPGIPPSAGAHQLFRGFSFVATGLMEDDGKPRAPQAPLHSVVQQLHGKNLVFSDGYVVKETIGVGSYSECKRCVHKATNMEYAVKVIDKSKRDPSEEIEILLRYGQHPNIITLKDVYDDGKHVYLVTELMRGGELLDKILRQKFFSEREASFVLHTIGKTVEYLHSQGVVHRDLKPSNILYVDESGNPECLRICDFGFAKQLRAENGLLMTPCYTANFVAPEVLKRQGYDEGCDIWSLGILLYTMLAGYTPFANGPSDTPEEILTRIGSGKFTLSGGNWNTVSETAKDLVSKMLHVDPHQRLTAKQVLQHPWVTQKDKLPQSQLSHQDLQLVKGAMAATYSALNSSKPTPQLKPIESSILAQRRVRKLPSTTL
Description: as §1

ASK1 = ASK1 (Homo sapiens, UniProt Q99683)
Description: as §1

MARK1 = MARK1 (Homo sapiens, UniProt Q9P0L2)
MARK1, sequence (Q9P0L2 whole entry): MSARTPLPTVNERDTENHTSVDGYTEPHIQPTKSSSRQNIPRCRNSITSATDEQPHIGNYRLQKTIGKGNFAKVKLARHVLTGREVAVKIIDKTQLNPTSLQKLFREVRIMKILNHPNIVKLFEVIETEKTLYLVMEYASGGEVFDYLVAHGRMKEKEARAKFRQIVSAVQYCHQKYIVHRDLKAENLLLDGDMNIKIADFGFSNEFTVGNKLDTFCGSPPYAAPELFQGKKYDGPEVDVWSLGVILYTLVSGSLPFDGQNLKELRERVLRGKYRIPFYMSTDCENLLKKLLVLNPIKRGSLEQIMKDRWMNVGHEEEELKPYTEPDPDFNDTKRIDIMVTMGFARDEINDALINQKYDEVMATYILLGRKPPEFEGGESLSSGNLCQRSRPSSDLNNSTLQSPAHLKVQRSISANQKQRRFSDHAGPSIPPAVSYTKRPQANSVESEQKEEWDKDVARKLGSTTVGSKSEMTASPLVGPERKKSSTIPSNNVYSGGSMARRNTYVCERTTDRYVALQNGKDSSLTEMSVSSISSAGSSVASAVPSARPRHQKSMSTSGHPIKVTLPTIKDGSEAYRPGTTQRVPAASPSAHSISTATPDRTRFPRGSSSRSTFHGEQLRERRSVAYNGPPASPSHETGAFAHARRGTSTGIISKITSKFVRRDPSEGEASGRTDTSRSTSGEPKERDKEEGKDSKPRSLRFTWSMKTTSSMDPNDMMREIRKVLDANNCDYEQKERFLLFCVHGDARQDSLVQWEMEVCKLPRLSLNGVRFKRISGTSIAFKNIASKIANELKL
Description: as §1

MKK1 = MKK1 (Homo sapiens, UniProt Q02750)
MKK1, sequence (Q02750 whole entry): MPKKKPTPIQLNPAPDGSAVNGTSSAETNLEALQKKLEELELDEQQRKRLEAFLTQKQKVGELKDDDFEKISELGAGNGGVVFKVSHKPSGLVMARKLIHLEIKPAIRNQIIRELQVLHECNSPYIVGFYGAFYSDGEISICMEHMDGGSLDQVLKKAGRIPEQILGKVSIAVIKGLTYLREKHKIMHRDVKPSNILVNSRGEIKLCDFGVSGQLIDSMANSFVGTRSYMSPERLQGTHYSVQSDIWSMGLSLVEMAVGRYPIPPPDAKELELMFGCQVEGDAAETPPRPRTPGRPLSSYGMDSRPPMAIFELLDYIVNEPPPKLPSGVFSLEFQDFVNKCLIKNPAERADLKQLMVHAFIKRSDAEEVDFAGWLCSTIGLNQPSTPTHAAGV
Description: as §1

MST3 = MST3 (Homo sapiens, UniProt Q9Y6E0)
Description: as §1

MARK4 = MARK4 (Homo sapiens, UniProt Q96L34)
Description: as §1

EPH-B4 = EPH-B4 (Homo sapiens, UniProt P54760)
Description: as §1

ERK2 = ERK2 (Homo sapiens, UniProt P28482)
Description: as §1

DYRK1A = DYRK1A (Homo sapiens, UniProt Q13627)
Description: as §1

HER4 = HER4 (Homo sapiens, UniProt Q15303)
Description: as §1

EPH-B2 = EPH-B2 (Homo sapiens, UniProt P29323)
Description: as §1

EPH-A4 = EPH-A4 (Homo sapiens, UniProt P54764)
Description: as §1

TESK1 = TESK1 (Homo sapiens, UniProt Q15569)
Description: as §1

ERK5 = ERK5 (Homo sapiens, UniProt Q13164)
Description: as §1

[1] = 1 μM, cross-referenced with screen data of ref 37, read-out: activity remaining after treatment

S6K1, sequence (P23443 whole entry): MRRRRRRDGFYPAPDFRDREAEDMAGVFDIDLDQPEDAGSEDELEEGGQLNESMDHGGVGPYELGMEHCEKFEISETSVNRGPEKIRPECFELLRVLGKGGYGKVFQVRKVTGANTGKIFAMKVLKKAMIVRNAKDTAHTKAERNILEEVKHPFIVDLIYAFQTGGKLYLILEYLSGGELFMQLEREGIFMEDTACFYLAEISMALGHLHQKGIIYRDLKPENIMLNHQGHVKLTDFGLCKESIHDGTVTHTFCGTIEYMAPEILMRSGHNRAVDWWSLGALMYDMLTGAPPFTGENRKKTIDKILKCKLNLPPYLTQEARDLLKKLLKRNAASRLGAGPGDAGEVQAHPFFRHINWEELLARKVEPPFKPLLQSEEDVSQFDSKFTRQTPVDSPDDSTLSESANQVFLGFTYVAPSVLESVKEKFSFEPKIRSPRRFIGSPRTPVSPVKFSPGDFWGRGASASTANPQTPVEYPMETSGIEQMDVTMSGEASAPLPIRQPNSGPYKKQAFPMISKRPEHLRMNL

`CCc1ccccc1C(=O)Nc1n[nH]c2c(C)c(F)c(C3C(C#N)=C(C)N(C)C(C)=C3C#N)cc12` [BAY-3827, N-[5-(3,5-dicyano-1,2,6-trimethyl-4H-pyridin-4-yl)-6-fluoro-7-methyl-1H-indazol-3-yl]-2-ethylbenzamide] showed a remaining activity at 0.1 µM (S6K1) of 87%, a remaining activity at 0.1 µM (JNK3) of 88% and a remaining activity at 0.1 µM (PIM3) of 101%. For the same molecule, the remaining activity at 1 µM (PIM3; [1]) was at least 99%, the remaining activity at 0.1 µM (CDK9-Cyclin T1) was 97% and the remaining activity at 0.1 µM (PKCz) was 112%. The inhibition at 0.1 µM (Aurora B) was about 60%, the remaining activity at 0.1 µM (Aurora B) was at most 50% and the remaining activity at 0.1 µM (SRPK1) was 111%. It also gave a remaining activity at 0.1 µM (PDK1) of 83%, a remaining activity at 0.1 µM (EF2K) of 91% and a remaining activity at 0.1 µM (PIM1) of 86%. For the same molecule, the remaining activity at 0.1 µM (MELK) was 81%, the remaining activity at 1 µM (MELK; [1]) was at most 50% and the remaining activity at 0.1 µM (TGFBR1) was 86%. For the same molecule, the remaining activity at 0.1 µM (SGK1) was 97%, the remaining activity at 0.1 µM (MAP4K3) was 82% and the remaining activity at 0.1 µM (OSR1) was 111%. The remaining activity at 0.1 µM (MPSK1) was 135%, the remaining activity at 0.1 µM (TAK1) was 118% and the remaining activity at 1 µM (TAK1; [1]) was at least 99%. It also gave a remaining activity at 0.1 µM (ERK8) of 66%, a remaining activity at 0.1 µM (TTK) of 74% and a remaining activity at 0.1 µM (MAPKAP-K2) of 82%. For the same molecule, the remaining activity at 0.1 µM (CK1δ) was 103%, the remaining activity at 0.1 µM (RIPK2) was 102% and the remaining activity at 0.1 µM (CAMKKb) was 97%. It also gave an inhibition at 0.1 µM (RSK1; 0.1 μM) of 80 to 85%, a remaining activity at 1 µM (RSK1; [1]) of at most 50% and a remaining activity at 0.1 µM (ASK1) of 95%. It also gave a remaining activity at 0.1 µM (MARK1) of 82%, a remaining activity at 0.1 µM (MKK1) of 100% and a remaining activity at 0.1 µM (MST3) of at most 50%. The remaining activity at 0.1 µM (MARK4) was 98%, the remaining activity at 0.1 µM (EPH-B4) was 109% and the remaining activity at 0.1 µM (ERK2) was 116%. For the same molecule, the remaining activity at 0.1 µM (DYRK1A) was 96%, the remaining activity at 0.1 µM (HER4) was 135% and the remaining activity at 0.1 µM (EPH-B2) was 98%. For the same molecule, the remaining activity at 0.1 µM (EPH-A4) was 94%, the remaining activity at 0.1 µM (TESK1) was 70% and the remaining activity at 0.1 µM (ERK5) was 80%.

`CC1=C(C#N)C(c2ccc3c(c2)c(NC(=O)c2ccccc2C)nn3C)C(C#N)=C(C)N1` [BAY-974, N-[5-(3,5-dicyano-2,6-dimethyl-1,4-dihydropyridin-4-yl)-1-methylindazol-3-yl]-2-methylbenzamide] showed a remaining activity at 0.1 µM (S6K1) of 97%, a remaining activity at 0.1 µM (JNK3) of 104% and a remaining activity at 0.1 µM (PIM3) of 125%. The remaining activity at 0.1 µM (CDK9-Cyclin T1) was 114%, the remaining activity at 0.1 µM (PKCz) was 103% and the remaining activity at 0.1 µM (Aurora B) was 62%. For the same molecule, the remaining activity at 0.1 µM (SRPK1) was 97%, the remaining activity at 0.1 µM (PDK1) was 85% and the remaining activity at 0.1 µM (EF2K) was 119%. The remaining activity at 0.1 µM (PIM1) was 82%, the remaining activity at 0.1 µM (MELK) was 90% and the remaining activity at 0.1 µM (TGFBR1) was 113%. It also gave a remaining activity at 0.1 µM (SGK1) of 127%, a remaining activity at 0.1 µM (MAP4K3) of 73% and a remaining activity at 0.1 µM (OSR1) of 109%. It also gave a remaining activity at 0.1 µM (MPSK1) of 105%, a remaining activity at 0.1 µM (TAK1) of 93% and a remaining activity at 0.1 µM (ERK8) of 91%. It also gave a remaining activity at 0.1 µM (TTK) of 79%, a remaining activity at 0.1 µM (MAPKAP-K2) of 84% and a remaining activity at 0.1 µM (CK1δ) of 116%. It also gave a remaining activity at 0.1 µM (RIPK2) of 108%, a remaining activity at 0.1 µM (CAMKKb) of 107% and a remaining activity at 0.1 µM (RSK1; 0.1 μM) of 66%. For the same molecule, the remaining activity at 0.1 µM (ASK1) was 83%, the remaining activity at 0.1 µM (MARK1) was 93% and the remaining activity at 0.1 µM (MKK1) was 100%. The remaining activity at 0.1 µM (MST3) was 89%, the remaining activity at 0.1 µM (MARK4) was 96% and the remaining activity at 0.1 µM (EPH-B4) was 116%. For the same molecule, the remaining activity at 0.1 µM (ERK2) was 110%, the remaining activity at 0.1 µM (DYRK1A) was 101% and the remaining activity at 0.1 µM (HER4) was 93%. For the same molecule, the remaining activity at 0.1 µM (EPH-B2) was 82%, the remaining activity at 0.1 µM (EPH-A4) was 81% and the remaining activity at 0.1 µM (TESK1) was 88%. It also gave a remaining activity at 0.1 µM (ERK5) of 70%.
